Assay results reported in patent publication EP0100257A2, “Aminoalkyl naphthalene derivatives, their salts, process for their preparation and the therapeutical use of these derivatives and salts” (DELALANDE S.A., priority 1982, dated 1984).

Assays:
[1] = Acute toxicity (DL 50) in mice; settings: in vivo, ip, mouse, i.p., read-out: DL 50 souris
Excerpt: Pour illustrer l'invention, on a rassemblé dans le tableau III ci-après les résultats obtenus dans ces deux tests avec quelques composés selon l'invention. Ce tableau donne en outre la toxicité aiguë (DL 50) des composés testés.

souris [2] = assay: Phenylbenzoquinone test (analgesic activity), protocol of Siegmund; format: in vivo; settings: ip, mouse, i.p., read-out: Propriétés analgésiques DE 50
souris [3] = assay: Antagonism of reserpine-induced ptosis (antidepressant activity), protocol of Gouret and Thomas; format: in vivo; settings: ip, 1 h; mouse, i.p.; ptosis observed one hour after reserpine 2 mg/kg i.v.; read-out: Propriétés antidépressives DE 50
Protocol: L'activité antidépressive a quant à elle été mise en évidence chez la souris par le test de l'antagonisme vis-à-vis du ptosis observé une heure après une injection intraveineuse (2 mg/kg) de réserpine chez la souris selon le protocole décrit par C.

CN(C)Cc1cc(-c2ccccc2)c2ccccc2c1 [Numéro de code 2, chlorhydrate de N,N-diméthylaminométhyl-2 phényl-4 naphtalène]
LD50 [1]: 70 mg/kg
ED50 (souris [2]): 4.5 mg/kg
ED50 (souris [3]): 5.3 mg/kg

NCCc1cc(-c2ccccc2)c2ccccc2c1 [Numéro de code 9, chlorhydrate de l'(amino-2) éthyl-2 phényl-4 naphtalène]
LD50 [1]: 58 mg/kg
ED50 (souris [2]): 2.2 mg/kg
ED50 (souris [3]): 3 mg/kg
